Source: US11399539B2, “Heterocyclic compound and harmful arthropod controlling agent containing same” (Sumitomo Chemical Company, Limited, priority 2016, dated 2022)

Tested on: cabbage aphids (Brevicoryne brassicae)
Assay: Test Example 8 and Comparative Test: spray on cabbage seedling infested with cabbage aphids
Format: in vivo
Conditions: Comparative Test according to Test example 8

## CCS(=O)(=O)c1cc(C(F)(F)F)cnc1-n1ccc(C(F)(F)F)cc1=O [A-48]
  Controlling value at 500 ppm (%): 93%

## CCS(=O)(=O)c1cc(C(F)(F)F)cnc1-n1cnc(C(F)(F)F)cc1=O [C-33]
  Controlling value at 500 ppm (%): 77%

## O=c1cc(C(F)(F)F)ccn1-c1ncc(C(F)(F)F)cc1Cl [Comparative compound 1]
  Controlling value at 500 ppm (%): 7%

## O=c1cc(C(F)(F)F)ncn1-c1ncc(C(F)(F)F)cc1Cl [Comparative compound 2]
  Controlling value at 500 ppm (%): 14%
